Literature values as cited in US8883408B2, “Tissue implants for implantation and methods of preparing the same” (CryoLife, Inc., priority 2010, dated 2014).

Tested on: sensitive bacteria
Settings: literature review

NCC[C@H](O)C(=O)N[C@@H]1C[C@H](N)[C@@H](O[C@H]2O[C@H](CN)[C@@H](O)[C@H](O)[C@H]2O)[C@H](O)[C@H]1O[C@H]1O[C@H](CO)[C@@H](O)[C@H](N)[C@H]1O [amikacin]
minimum inhibitory concentration against sensitive bacteria (MIC) range: 0.125 to 32 µg/mL
